# According to PubChem BioAssay (NCI):
#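 Growth conditions: 96-well plates. Treatment: test compound, 48 hours, 5 concentrations. Analysis: linear interpolation between bracketing concentrations; unreached endpoints set to highest concentration. GI50 marks 50% less growth. Definition used: TGI = concentration required for complete inhibition of growth.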
# Key:
# Assay in all cases: NCI anticancer screen, dose series, 48 h
# 786-0 renal = system: 786-0 renal
# A498 renal = system: A498 renal
# A549 NSCLC = system: A549 NSCLC
# ACHN renal = system: ACHN renal
# BT-549 breast = system: BT-549 breast
# CAKI-1 renal = system: CAKI-1 renal
# CCRF-CEM leukemia = system: CCRF-CEM leukemia
# COLO 205 colon = system: COLO 205 colon
# DU-145 prostate = system: DU-145 prostate
# EKVX NSCLC = system: EKVX NSCLC
# HCC-2998 colon = system: HCC-2998 colon
# HCT-116 colon = system: HCT-116 colon
# HCT-15 colon = system: HCT-15 colon
# HL-60(TB) leukemia = system: HL-60(TB) leukemia
# HOP-62 NSCLC = system: HOP-62 NSCLC
# HOP-92 NSCLC = system: HOP-92 NSCLC
# HS 578T breast = system: HS 578T breast
# HT29 colon = system: HT29 colon
# IGROV1 ovarian = system: IGROV1 ovarian
# K-562 leukemia = system: K-562 leukemia
# KM12 colon = system: KM12 colon
# LOX IMVI melanoma = system: LOX IMVI melanoma
# M14 melanoma = system: M14 melanoma
# MALME-3M melanoma = system: MALME-3M melanoma
# MCF7 breast = system: MCF7 breast
# MDA-MB-231 breast = system: MDA-MB-231 breast
# MDA-MB-435 = system: MDA-MB-435
# MDA-MB-468 breast = system: MDA-MB-468 breast
# MOLT-4 leukemia = system: MOLT-4 leukemia
# NCI-H226 lung = system: NCI-H226 lung
# NCI-H23 lung = system: NCI-H23 lung
# NCI-H460 lung = system: NCI-H460 lung
# NCI-H522 lung = system: NCI-H522 lung
# OVCAR-3 ovarian = system: OVCAR-3 ovarian
# OVCAR-4 ovarian = system: OVCAR-4 ovarian
# OVCAR-5 ovarian = system: OVCAR-5 ovarian
# OVCAR-8 ovarian = system: OVCAR-8 ovarian
# PC-3 prostate = system: PC-3 prostate
# RPMI-8226 leukemia = system: RPMI-8226 leukemia
# RXF 393 renal = system: RXF 393 renal
# SF-268 CNS = system: SF-268 CNS
# SF-295 CNS = system: SF-295 CNS
# SF-539 CNS = system: SF-539 CNS
# SK-MEL-28 melanoma = system: SK-MEL-28 melanoma
# SK-MEL-5 melanoma = system: SK-MEL-5 melanoma
# SK-OV-3 ovarian = system: SK-OV-3 ovarian
# SN12C renal = system: SN12C renal
# SNB-19 CNS = system: SNB-19 CNS
# SNB-75 CNS = system: SNB-75 CNS
# SW-620 colon = system: SW-620 colon
# T-47D breast = system: T-47D breast
# TK-10 renal = system: TK-10 renal
# U251 CNS = system: U251 CNS
# UACC-257 melanoma = system: UACC-257 melanoma
# UACC-62 melanoma = system: UACC-62 melanoma
# UO-31 renal = system: UO-31 renal
smiles,measurement,setting,value
Clc1ccc(-c2ccc(OCCCN3CCN(c4ccncc4)CC3)cc2)cc1,GI50,786-0 renal,14 µM
same,TGI,786-0 renal,27.1 µM
same,GI50,A498 renal,15.8 µM
same,TGI,A498 renal,29.6 µM
same,GI50,A549 NSCLC,15.1 µM
same,TGI,A549 NSCLC,29.9 µM
same,GI50,ACHN renal,16.3 µM
same,TGI,ACHN renal,30.4 µM
same,GI50,BT-549 breast,11.7 µM
same,TGI,BT-549 breast,25.9 µM
same,GI50,CAKI-1 renal,15.3 µM
same,TGI,CAKI-1 renal,32.4 µM
same,GI50,CCRF-CEM leukemia,4.65 µM
same,TGI,CCRF-CEM leukemia,24.1 µM
same,GI50,COLO 205 colon,7.31 µM
same,TGI,COLO 205 colon,20.6 µM
same,GI50,DU-145 prostate,17.9 µM
same,TGI,DU-145 prostate,55.4 µM
same,GI50,EKVX NSCLC,12 µM
same,TGI,EKVX NSCLC,27.9 µM
same,GI50,HCC-2998 colon,13.3 µM
same,TGI,HCC-2998 colon,26.6 µM
same,GI50,HCT-116 colon,2.73 µM
same,TGI,HCT-116 colon,10.4 µM
same,GI50,HCT-15 colon,1.88 µM
same,TGI,HCT-15 colon,3.82 µM
same,GI50,HL-60(TB) leukemia,4.46 µM
same,TGI,HL-60(TB) leukemia,19.7 µM
same,GI50,HOP-62 NSCLC,14.7 µM
same,TGI,HOP-62 NSCLC,29 µM
same,GI50,HOP-92 NSCLC,3.46 µM
same,TGI,HOP-92 NSCLC,20.3 µM
same,GI50,HS 578T breast,17.9 µM
same,TGI,HS 578T breast,45.3 µM
same,GI50,HT29 colon,3.77 µM
same,TGI,HT29 colon,14.8 µM
same,GI50,IGROV1 ovarian,16.8 µM
same,TGI,IGROV1 ovarian,32.1 µM
same,GI50,K-562 leukemia,2.64 µM
same,TGI,K-562 leukemia,> 100 µM
same,GI50,KM12 colon,14.5 µM
same,TGI,KM12 colon,29.7 µM
same,GI50,LOX IMVI melanoma,1.86 µM
same,TGI,LOX IMVI melanoma,3.63 µM
same,GI50,M14 melanoma,14.3 µM
same,TGI,M14 melanoma,28.7 µM
same,GI50,MALME-3M melanoma,18.1 µM
same,TGI,MALME-3M melanoma,32.7 µM
same,GI50,MCF7 breast,6.19 µM
same,TGI,MCF7 breast,21.2 µM
same,GI50,MDA-MB-231 breast,11.8 µM
same,TGI,MDA-MB-231 breast,24.7 µM
same,GI50,MDA-MB-435,11.1 µM
same,TGI,MDA-MB-435,23.5 µM
same,GI50,MDA-MB-468 breast,6.28 µM
same,TGI,MDA-MB-468 breast,19.5 µM
same,GI50,MOLT-4 leukemia,6.71 µM
same,TGI,MOLT-4 leukemia,> 100 µM
same,GI50,NCI-H226 lung,20.8 µM
same,TGI,NCI-H226 lung,55.8 µM
same,GI50,NCI-H23 lung,13.9 µM
same,TGI,NCI-H23 lung,29.1 µM
same,GI50,NCI-H460 lung,7.47 µM
same,TGI,NCI-H460 lung,21.4 µM
same,GI50,NCI-H522 lung,16.6 µM
same,TGI,NCI-H522 lung,31.9 µM
same,GI50,OVCAR-3 ovarian,13 µM
same,TGI,OVCAR-3 ovarian,30.2 µM
same,GI50,OVCAR-4 ovarian,15.6 µM
same,TGI,OVCAR-4 ovarian,41.7 µM
same,GI50,OVCAR-5 ovarian,14.5 µM
same,TGI,OVCAR-5 ovarian,28.6 µM
same,GI50,OVCAR-8 ovarian,22 µM
same,TGI,OVCAR-8 ovarian,68.1 µM
same,GI50,PC-3 prostate,8.43 µM
same,TGI,PC-3 prostate,51.3 µM
same,GI50,RPMI-8226 leukemia,6.95 µM
same,TGI,RPMI-8226 leukemia,> 100 µM
same,GI50,RXF 393 renal,6.74 µM
same,TGI,RXF 393 renal,20.6 µM
same,GI50,SF-268 CNS,16.9 µM
same,TGI,SF-268 CNS,36.5 µM
same,GI50,SF-295 CNS,13.9 µM
same,TGI,SF-295 CNS,28.1 µM
same,GI50,SF-539 CNS,12.5 µM
same,TGI,SF-539 CNS,25.4 µM
same,GI50,SK-MEL-28 melanoma,15.3 µM
same,TGI,SK-MEL-28 melanoma,29.2 µM
same,GI50,SK-MEL-5 melanoma,14.9 µM
same,TGI,SK-MEL-5 melanoma,28.1 µM
same,GI50,SK-OV-3 ovarian,15.5 µM
same,TGI,SK-OV-3 ovarian,30.4 µM
same,GI50,SN12C renal,13 µM
same,TGI,SN12C renal,26.3 µM
same,GI50,SNB-19 CNS,15.7 µM
same,TGI,SNB-19 CNS,30 µM
same,GI50,SNB-75 CNS,14.9 µM
same,TGI,SNB-75 CNS,32.5 µM
same,GI50,SW-620 colon,9.92 µM
same,TGI,SW-620 colon,23.3 µM
same,GI50,T-47D breast,16.2 µM
same,TGI,T-47D breast,40.2 µM
same,GI50,TK-10 renal,19.6 µM
same,TGI,TK-10 renal,36.2 µM
same,GI50,U251 CNS,11.8 µM
same,TGI,U251 CNS,25.4 µM
same,GI50,UACC-257 melanoma,17.3 µM
same,TGI,UACC-257 melanoma,32.6 µM
same,GI50,UACC-62 melanoma,16.7 µM
same,TGI,UACC-62 melanoma,30.5 µM
same,GI50,UO-31 renal,14.7 µM
same,TGI,UO-31 renal,29.6 µM
